From US7247444B2, “Use of interleukin-19 to treat cervical cancer” (ZymoGenetics, Inc., priority 2002, dated 2007)

B1: IL-19: interleukin-19 polypeptide, SEQ ID NO:2; mature secreted form from amino acid 23 (His) to 177 (Ala) (protein, listed as Homo sapiens)
chain: MKLQCVSLWLLGTILILCSVDNHGLRRCLISTDMHHIEESFQEIKRAIQAKDTFPNVTILSTLETLQIIKPLDVCCVTKNLLAFYVDRVFKDHQEPNPKILRKISSIANSFLYMQKTLRQCQEQRQCHCRQEATNATRVIHDNYDQLEVHAAAIKSLGELDVFLAWINKNHEVMSSA

System: HeLa299
Assay: HeLa299 cytoxicity assay (MTT readout)
Type: cell-based
Details: HeLa299 cells, 72 hrs, complete growth media
Experimental: We tested IL-19 in a HeLa299 cytoxicity assay to measure the ability of IL-19 to prevent cells from growing during normal growth conditions. We used MTT reagent (Promega, Madison, USA) as our detection and readout for this cell inhibition assay. Procedure of a cytoxicity assay: • Day 1—Plate cells out in complete growth media (with serum) at 5000 cells/well in a 96 well format and let them incubate overnight at 37 degrees and 5% CO2. • Day 2—Dump off media and add a dose response of appropriate ligands in complete growth media (IL-19 at 10, 100, and 1000 ng/ml.), along with a positive control retinoic acid (100 uM) in complete growth media, while leaving some wells in complete growth media as controls of how the cells normally grow under normal conditions. Put the cells in incubator and let the assay go for 72 hrs. • Day 5—Add 15 ul/well of MTT reagent, let cells inc. for 4 hrs., then add 100 ul of stop solution, let cells inc. for an additional 1 hr., then read the plate on a multilabel counter (Victor2, PerkinElmer Life Sciences Inc., Boston). The MTT protocol will give you two readings, one at a 650 wavelength (background) and one at a 572 wavelength. Subtract the 650 reading from the 572 reading to get your actual output. These numbers are averaged and converted to a % inhibition value.

Row | Molecule | inhibition at 100 µM (retinoic acid 100 uM) [%] | maximal inhibition of growth (IL-19 dose response 10, 100, and 1000 ng/ml) [%]
1 | CC1=C(/C=C/C(C)=C/C=C/C(C)=C/C(=O)O)C(C)(C)CCC1 [Retnoic Acid, retinoic acid] | 53 | 
2 | B1 |  | 38
